Patent publication US20250197865A1, “PHARMACEUTICAL COMPOSITION FOR TREATMENT OR PREVENTION OF FIBROTIC DISEASE” (KYUSHU UNIVERSITY, NATIONAL UNIVERSITY CORPORATION, priority 2022, published 2025)

Tests used:
TGFβ/SMAD pathway = assay: SIS3 treatment of myofibroblasts from carbon tetrachloride-induced fibrotic liver, mRNA by real-time RT-PCR; type: cell-based, mouse; details: myofibroblasts from CCl4 liver fibrosis model; SIS3 3 μM; P4HA3, Col1α1, Col1α2, Col3α1; FIG. 26b
Excerpt: (§1) Hepatic stellate cells, which are involved in liver fibrosis, are known to be activated by TGFβ (Fabregat, I. et al., FEBS J., 283:2219-2232 (2016)). Therefore, the effects of TGFβ and its specific inhibitor SIS3, as well as an inhibitor of SMAD3 involved in signal transduction of the TGFβ pathway (si SMAD3), on the mRNA expression of fibrosis-related factors in […] were examined. SIS3 (CAS number: 1009104-85-1) was used under catalog number 15945 from Cayman Chemical Company. SIS3 was added to the culture medium at a final concentration of 3 μM and administered. Si SMAD3 was used as a knockdown reagent for SMAD3. si SMAD3 was used under catalog number 4390771 (Assay ID: s69495) from ThermoFisher Scientific. si SMAD3 was administered to cultured cells in the same manner as in Examples 3, 7, and 13. LX-2, a cultured hepatic stellate cell line, was cultured in DMEM supplemented with 2% FBS.
Bar graph showing the mRNA expression levels of P4HA3, 1α1 collagen (Col1α1), 1α2 collagen (Col1α2), and 3α1 collagen (Col3α1) in myofibroblasts isolated from liver tissue of a mouse model of liver damage and liver fibrosis caused by carbon tetrachloride administration and treated with SIS3, an inhibitor of the TGFβ/SMAD pathway. […] The number of samples for each group was 5.

[1] = tested on: P4HA3 and 1α1 collagen (Col1α1) mRNA expression in LX-2 cells; assay: TGFβ treatment of cultured LX-2 hepatic stellate cell line, mRNA by real-time RT-PCR; type: cell-based; details: TGFβ 5 ng/mL for 12 hr, FIG. 26a
Excerpt: as §1
First, the effect of TGFβ on the mRNA expression of P4HA3 or 1α1 collagen (Col1α1) in the cultured LX-2 cells was examined. FIG. 26a is a bar graph showing the mRNA expression level of P4HA3 or 1α1 collagen (Col1α1) in LX-2 cells treated with DMSO or TGFβ (5 ng/ML) for 12 hr. […] The number of samples for each group was 3. […] Error bars indicate standard deviation.

| Molecule | mRNA expression of fibrosis-related factors including P4HA3 (TGFβ/SMAD pathway) | mRNA expression of 1α1 collagen (Col1α1) [1] | mRNA expression of P4HA3 [1] |
| --- | --- | --- | --- |
| COc1cc2c(cc1OC)CN(C(=O)/C=C/c1c(-c3ccccc3)n(C)c3ncccc13)CC2 [SIS3] | suppressed | – | – |
| TGFβ | – | enhanced | enhanced |
